# Assay results from EP1310250A1, “Use of the compound 2-methoxyphenyl-1-methyl-5P-methylbenzoyl-pyrrol-2-acetamido acetate for the production of an antiinflammatory drug with prevention of gastric hypersecretion and renal impairment” (MEDOSAN Ricerca S.r.l., priority 1997, dated 1999).
# Legend:
# [1] = tested on: adverse events; assay: Clinical trials: tolerability, adverse events and suspensions of treatment; set-up: species or system man; settings: in vivo
# Source text: Interest in the amtolmetin guacyl molecule arose following a thorough analysis of the results of 31 comparative and 6 non-comparative clinical trials involving 1596 patients. […] Turthermore the physician, being aware of administering an NSAID, was expecting adverse events and could not be expected to be an impartial observer. The few cases of gastro-intestinal phenomena reported with amtolmetin guacyl were transitory and in no event accompanied by the presence of occult blood in the stools. Moreover, even in the presence of a reported side-effect it was almost never necessary to suspend treatment (0.4% of suspensions).
# Following are summarized the results obtained on a total of 1596 patients in 37 clinical trials.
# Confirmation of the above described advantages is the very low incidence of treatment suspension for adverse events found in clinics (Table 17), which is not the case for most of NSAIDs known in the art (Table 18).
# [2] = tested on: osteoarthritis; assay: Clinical trials: antiphlogistic activity in osteoarthritis; format: in vivo, man; set-up: key to Antiphlogistic activity evaluation: excellent ^++++; good ^+++; poor ^++
# Source text: In this degenerative disease amtolmetin guacyl was compared with diclofenac, diflunisal, flurbiprofen, ibuprofen, ketoprofen, naproxen and tolmetin.
compound,measurement,setting,value
"COc1ccccc1OC(=O)CNC(=O)Cc1ccc(C(=O)c2ccc(C)cc2)n1C [amtolmetin guacyl, 2-methoxyphenyl-1-methyl-5p-methylbenzoylpyrrol-2-acetamido acetate]",Treatment suspended %,[1]; human,"0,4%"
same,suspensions of treatment,[1]; human,0.4%
same,variations of the routine biological parameters,[1],no significant variations of the routine biological parameters were observed
same,Evaluation of antiphlogistic activity,"[2]; 550 patients, mean 80 days, versus Diclofenac, Diflunisal, Flurbiprofen, Ibuprofen, Ketoprofen, Naproxen, Tolmetin",Amtolmetin guacyl was more rapid and more active in a statistically significant manner in osteoarthritis compared to the reference NSAIDs.
same,Antiphlogistic activity evaluation,[2]; Osteoarthritis,^++++
